Measured values from patent publication US20100197591A1, “4-AMINO-7,8-DIHYDROPYRIDO[4,3-d]PYRIMIDIN-5(6H)-ONE DERIVATIVES” (pfizer Inc, priority 2009, published 2010).

Molecular target: T1, Human full-length diacylglycerol:acylCoA acyltransferase 1 (DGAT-1) (Homo sapiens, UniProt O75907)
T1 construct: Human full-length diacylglycerol:acylCoA acyltransferase 1 (DGAT-1) was expressed in Sf9 insect cells; made in house; host or cells: Sf9 insect cells (baculovirus); crude membrane/microsome fraction
T1 sequence (O75907 1-488): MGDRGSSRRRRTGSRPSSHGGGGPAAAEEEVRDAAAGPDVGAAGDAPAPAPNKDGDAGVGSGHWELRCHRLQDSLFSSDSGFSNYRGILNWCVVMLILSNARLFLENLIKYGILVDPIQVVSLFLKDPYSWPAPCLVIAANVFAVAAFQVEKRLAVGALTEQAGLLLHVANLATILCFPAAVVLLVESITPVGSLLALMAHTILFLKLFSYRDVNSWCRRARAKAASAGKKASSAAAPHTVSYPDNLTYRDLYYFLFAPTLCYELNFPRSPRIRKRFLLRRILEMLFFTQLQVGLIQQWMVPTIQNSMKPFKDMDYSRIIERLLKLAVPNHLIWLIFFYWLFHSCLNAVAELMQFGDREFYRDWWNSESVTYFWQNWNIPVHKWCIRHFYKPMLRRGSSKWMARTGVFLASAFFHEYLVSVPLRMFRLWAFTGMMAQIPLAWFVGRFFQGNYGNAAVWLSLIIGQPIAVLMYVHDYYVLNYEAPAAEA
Experiment: DGAT-1 Reduced Microsome Multidose Assay, G7329F Human IC50
Format: biochemical
Details: crude membrane fraction of Sf9 cells expressing human DGAT-1; [14C]decanoylCoA; apparent IC50, average where tested more than once
Description: Human full-length diacylglycerol:acylCoA acyltransferase 1 (DGAT-1) was expressed in Sf9 insect cells which are then lysed and a crude membrane fraction (105,000×g pellet) was prepared. The DGAT-1 gene is a human DGAT-1 gene described in J Biol Chem 273:26765 (1998) and U.S. Pat. No. 6,100,077.
In vitro inhibition of DGAT-1 was measured using a modification, further described below, of the assay methodology described in U.S. Pat. No. 6,994,956 B2.
The cells were cultured as follows. Sf9 cells (20 L) were infected with 4 mL of DGAT-1 Baculovirus Infected Insect Cells (BIIC) for 72 hours in a Wave Bioreactor System 20/50P (Wave Biotec/GE Healthcare).
Crude DGAT-1 microsomes were prepared as follows. Cell pellets were washed once with ice-cold Dulbecco's phosphate-buffered saline. Cells were collected in tabletop centrifuge (Beckman GS-6KR), 15 minutes, 2000×g, 4° C. Twenty (20) mL of ice-cold Microsome Buffer (MB) was added per 5 g of cell pellet. The suspension was passed through a microfluidizer 3 times (18K psi). The lysate was transferred to centrifuge tubes and centrifuged for 20 minutes at 5000×g (Beckman-Coulter, Inc. Allegra® 64R High-Speed Refrigerated Benchtop Centrifuge, F0650 rotor) at 4° C. The supernatant was transferred to ultracentrifuge tubes and centrifuged at 125,000×g for 1 hour in a Beckman Ti-45 rotor, 4° C. The supernatant fluid was discarded. The pellet was resuspended in 70 mL of MB by sonication. The microsome concentration was determined using Bio-Rad Protein DC Protein Assay. The microsomes were filter sterilized with a 0.22 μm filter. The samples were portioned, flash frozen and stored at −80° C.
The Microsome Buffer, used for microsome preparation, was prepared by conventional means and contained 125 mM sucrose, 3 mM imidazole, 0.2 μg/mL aprotinin, 0.2 μg/mL leupeptin and 5 mM dithiothreitol (Cleland's reagent), DGAT-1 activity was measured in 384-well format in a total assay volume of 25 μl that contained, Hepes buffer (50 mM, pH 7.5), MgCl2 (10 mM), bovine serum albumin (0.6 mg/ml), [^14C]decanoylCoA (20 μM, 58 Ci/mol) and membranes (25 μg/ml) into which 1,2 dioleoyl-sn-glycerol (75 μM) in acetone has already been incorporated. Inhibitors in DMSO were pre-incubated with membranes before initiating the DGAT-1 reaction by the addition of decanoylCoA. […] The DMSO concentration was 2.5%. The inhibitors were present at a range of eight concentrations to generate an apparent IC50 for each compound. The eight inhibitor concentration employed ranged from 10 μM to 3 nM (from high to low concentration). Specifically, the eight concentrations used were 10 μM, 3 μM, 1 μM, 300 nM, 100 nM, 30 nM, 10 nM and 3 nM.
Reaction mixtures were neutralized by the addition of 15 μl of tris(hydroxy-methyl)aminomethane (1M, pH 8.0) and then mixed by trituration with 37.5 μl of Microscint™-E (Perkin Elmer). Plates contents were allowed to partition for 15 to 30 min before ^14C was measured in a scintillation spectrometer (Wallac Microbeta Trilux 1450-030 liquid scintillation counter 12 detector in the top-count DPM mode). Percent inhibition of test compounds was computed as […].
Four separate assays were performed using 4 different methods of analysis. The method of analysis of Assay 1 was the same as Assay 4 (described above) except microsomes were utilized at 25 μg/mL instead of 5 μg/mL. The method of analysis of Assay 2 was the same as Assay 4 (described above) except eleven (11) concentrations of inhibitor were employed instead of eight (8). The method of analysis of Assay 3 was the same as Assay 2 except the compounds were serially diluted in a different laboratory.
Where this DGAT-1 inhibition assay was performed on a compound more than once, an average is provided for that compound.

Structure (SMILES) | IC50 [nM]
CNC(=O)C(C)(C)c1ccc(N2CCc3nc(OC)nc(N)c3C2=O)cc1 [Example 3G, 2-[4-(4-amino-2-methoxy-5-oxo-7,8-dihydropyrido[4,3-d]pyrimidin-6(5H)-yl)phenyl]-N,2-dimethylpropanamide] | 126
COc1nc(N)c2c(n1)CCN(c1ccc(C(C)(C)C(=O)N(C)C)cc1)C2=O [Example 3H, 2-[4-(4-amino-2-methoxy-5-oxo-7,8-dihydropyrido[4,3-d]pyrimidin-6(5H)-yl)phenyl]-N,N,2-trimethylpropanamide] | 260
COc1nc(N)c2c(n1)CCN(c1ccc(C(C)(C)C(N)=O)cc1)C2=O [Example 3I, 2-[4-(4-amino-2-methoxy-5-oxo-7,8-dihydropyrido[4,3-d]pyrimidin-6(5H)-yl)phenyl]-2-methylpropanamide] | 52.8
COc1nc(N)c2c(n1)CCN(c1ccc(C(C)(C)c3ncnn3C)cc1)C2=O [Example 3K, 4-amino-2-methoxy-6-{4-[1-methyl-1-(1-methyl-1H-1,2,4-triazol-5-yl)ethyl]phenyl}-7,8-dihydropyrido[4,3-d]pyrimidin-5(6H)-one] | 795
COc1nc(N)c2c(n1)CCN(c1ccc(C(C)(C)c3ncn[nH]3)cc1)C2=O [Example 3N] | 78.5
COc1nc(N)c2c(n1)CCN(c1ccc(C(C)(C)C#N)cc1)C2=O [Example 3O, 2-[4-(4-amino-2-methoxy-5-oxo-7,8-dihydropyrido[4,3-d]pyrimidin-6(5H)-yl)phenyl]-2-methylpropanenitrile] | 88.3
COc1nc(N)c2c(n1)CCN(c1ccc(C(C)(C)c3nnn[nH]3)cc1)C2=O [Example 3P, 4-amino-2-methoxy-6-{4-[1-methyl-1-(1H-tetrazol-5-yl)ethyl]phenyl}-7,8-dihydropyrido[4,3-d]pyrimidin-5(6H)-one] | 20.9
COc1nc(N)c2c(n1)CCN(c1ccc(C(C)(C)CNC(C)=O)cc1)C2=O [Example 3U, N-{2-[4-(4-amino-2-methoxy-5-oxo-7,8-dihydropyrido[4,3-d]pyrimidin-6(5H)-yl)phenyl]-2-methylpropyl}acetamide] | 84.3
COc1nc(N)c2c(n1)CCN(c1cccc(C(C)C)c1)C2=O [Example 6B, 4-amino-6-(3-isopropylphenyl)-2-methoxy-7,8-dihydropyrido[4,3-d]pyrimidin-5(6H)-one] | 873
COc1nc(N)c2c(n1)CCN(c1cccc(C(C)(C)C)c1)C2=O [Example 6C, 4-amino-6-(3-tert-butylphenyl)-2-methoxy-7,8-dihydropyrido[4,3-d]pyrimidin-5(6H)-one] | 37.7
CCOc1nc(N)c2c(n1)CCN(c1ccc(C(C)(C)C)cc1)C2=O [Example 6D, 4-amino-6-(4-tert-butylphenyl)-2-ethoxy-7,8-dihydropyrido[4,3-d]pyrimidin-5(6H)-one] | 899
COc1nc(N)c2c(n1)CCN(c1ccc(C(F)(F)F)cc1)C2=O [Example 6F, 4-amino-2-methoxy-6-[4-(trifluoromethyl)phenyl]-7,8-dihydropyrido[4,3-d]pyrimidin-5(6H)-one] | 329
COc1nc(N)c2c(n1)CCN(c1ccc(C(C)C)cc1F)C2=O [Example 6G, 4-amino-6-(2-fluoro-4-isopropylphenyl)-2-methoxy-7,8-dihydropyrido[4,3-d]pyrimidin-5(6H)-one] | 19.8
COc1nc(N)c2c(n1)CCN(c1ccc(C(C)(C)C)c(F)c1)C2=O [Example 6H, 4-amino-6-(4-tert-butyl-3-fluorophenyl)-2-methoxy-7,8-dihydropyrido[4,3-d]pyrimidin-5(6H)-one] | 12.6
COc1nc(N)c2c(n1)CCN(c1ccc(C(C)(C)C)cc1F)C2=O [Example 6I, 4-amino-6-(4-tert-butyl-2-fluorophenyl)-2-methoxy-7,8-dihydropyrido[4,3-d]pyrimidin-5(6H)-one] | 4.9
COc1nc(N)c2c(n1)CCN(c1ccc3c(c1)N(C)C(=O)C3(C)C)C2=O [Example 6J, 4-amino-2-methoxy-6-(1,3,3-trimethyl-2-oxo-2,3-dihydro-1H-indol-6-yl)-7,8-dihydropyrido[4,3-d]pyrimidin-5(6H)-one] | 256
COc1nc(N)c2c(n1)CCN(c1ccc(C(C)(C)C(F)(F)F)cc1)C2=O [Example 6K, 4-amino-2-methoxy-6-[4-(2,2,2-trifluoro-1,1-dimethylethyl)phenyl]-7,8-dihydropyrido[4,3-d]pyrimidin-5(6H)-one] | 32.7
COc1nc(N)c2c(n1)CCN(c1ccc([C@H]3CC[C@H](Cc4nc(C)no4)CC3)c(F)c1)C2=O [Example 7E, 4-amino-6-(3-fluoro-4-{trans-4-[(3-methyl-1,2,4-oxadiazol-5-yl)methyl]cyclohexyl}phenyl)-2-methoxy-7,8-dihydropyrido[4,3-d]pyrimidin-5(6H)-one] | 38.7

More lines, now with the values ahead:

IC50 [nM] | Structure (SMILES)
1570 | COc1nc(N)c2c(n1)CCN(c1ccc(C(C)(C)NC(C)=O)cc1)C2=O [Example 8A, N-{1-[4-(4-amino-2-methoxy-5-oxo-7,8-dihydropyrido[4,3-d]pyrimidin-6(5H)-yl)phenyl]-1-methylethyl}acetamide]
68.9 | COc1nc(N)c2c(n1)CCN(c1ccc(Cl)c(Cl)c1)C2=O [Example 9A, 4-amino-6-(3,4-dichlorophenyl)-2-methoxy-7,8-dihydropyrido[4,3-d]pyrimidin-5(6H)-one]
104 | COc1nc(N)c2c(n1)CCN(c1ccc3c(c1)OCCO3)C2=O [Example 9B, 4-amino-6-(2,3-dihydro-1,4-benzodioxin-6-yl)-2-methoxy-7,8-dihydropyrido[4,3-d]pyrimidin-5(6H)-one]
594 | COc1nc(N)c2c(n1)CCN(c1ccccc1)C2=O [Example 9C, 4-amino-2-methoxy-6-phenyl-7,8-dihydropyrido[4,3-d]pyrimidin-5(6H)-one]
101 | COc1nc(N)c2c(n1)CCN(c1ccc(Cl)c(F)c1)C2=O [Example 9D, 4-amino-6-(4-chloro-3-fluorophenyl)-2-methoxy-7,8-dihydropyrido[4,3-d]pyrimidin-5(6H)-one]
747 | COc1nc(N)c2c(n1)CCN(c1ccc(Cl)cc1)C2=O [Example 9F, 4-amino-6-(4-chlorophenyl)-2-methoxy-7,8-dihydropyrido[4,3-d]pyrimidin-5(6H)-one]
102 | COc1nc(N)c2c(n1)CCN(c1ccc(OC(C)C)cc1)C2=O [Example 9G, 4-amino-6-(4-isopropoxyphenyl)-2-methoxy-7,8-dihydropyrido[4,3-d]pyrimidin-5(6H)-one]
